Measured values from patent publication US20100063092A1, “3-CYANO-4-(4-PHENYL-PIPERIDIN-1-YL)-PYRIDIN-2-ONE DERIVATIVES” (Ortho-Mcneil-Janssen Pharmaceuticals, Inc., priority 2007, published 2010).
Where two headings read alike, the source gives them in different places.

How the values were obtained:
[1] = molecular target: T1, human mGluR2 (Homo sapiens, UniProt Q14416); assay: [35S]GTPγS binding assay (PAM assay); type: biochemical
T1 construct: expressed in transfected cells; host or cells: CHO cells (membranes)
Excerpt: The compounds provided in the present invention are positive allosteric modulators of mGluR2. These compounds appear to potentiate glutamate responses by binding to an allosteric site other than the glutamate binding site. The response of mGluR2 to a concentration of glutamate is increased when compounds of formula (I) are present. Compounds of formula (I) are expected to have their effect substantially at mGluR2 by virtue of their ability to enhance the function of the receptor. The behaviour of positive allosteric modulators tested at mGluR2 using the [^35S]GTPγS binding assay method described below and which is suitable for the identification of such compounds, and more particularly the compounds according to formula (I), are shown in Table 3.
The [^35S]GTPγS binding assay is a functional membrane-based assay used to study G-protein coupled receptor (GPCR) function whereby incorporation of a non-hydrolysable form of GTP, [^35S]GTPγS (guanosine 5′-triphosphate, labelled with […] ^35S), is measured. The G-protein […] catalyzes the exchange of guanosine 5′-diphosphate (GDP) by guanosine triphosphate (GTP) and on activation of the GPCR by an agonist, [^35S]GTPγS, becomes incorporated and cannot be cleaved to continue the exchange cycle (Harper (1998) Current Protocols in Pharmacology 2.6.1-10, John Wiley & Sons, Inc.). […] Here we describe the use of the [^35S]GTPγS binding assay using membranes from cells transfected with the human mGluR2 receptor and adapted from Schaffhauser et al ((2003) Molecular Pharmacology 4:798-810) for the detection of the positive allosteric modulation (PAM) properties of the compounds of this invention.
CHO-cells were cultured to pre-confluence and stimulated with 5 mM butyrate for 24 hours, prior to washing in PBS, and then collection by scraping in homogenisation buffer (50 mM Tris-HCl buffer, pH 7.4, 4° C.). Cell lysates were homogenized briefly (15s) using an ultra-turrax homogenizer. The homogenate was centrifuged at 23 500×g for 10 minutes and the supernatant discarded. The pellet was resuspended in 5 mM Tris-HCl, pH 7.4 and centrifuged again (30 000×g, 20 min, 4° C.). The final pellet was resuspended in 50 mM HEPES, pH 7.4 and stored at −80° C. in appropriate aliquots before use. Protein concentration was determined by the Bradford method (Bio-Rad, USA) with bovine serum albumin as standard.
Measurement of mGluR2 positive allosteric modulatory activity of test compounds in membranes containing human mGluR2 was performed using frozen membranes that were thawed and briefly homogenised prior to pre-incubation in 96-well microplates (15 μg/assay well, 30 minutes, 30° C.) in assay buffer (50 mM HEPES pH 7.4, 100 mM NaCl, 3 mM MgCl2, 50 μM GDP, 10 μg/ml saponin,) with increasing concentrations of positive allosteric modulator (from 0.3 nM to 50 μM) and either a minimal pre-determined concentration of glutamate (PAM assay), or no added glutamate. For the PAM assay, membranes were pre-incubated with glutamate at EC25 concentration, i.e. a concentration that gives 25% of the maximal response glutamate, and is in accordance to published data (Pin et al. (1999) Eur. J. Pharmacol. 375:277-294). After addition of [^35S]GTPγS (0.1 nM, f.c.) to achieve a total reaction volume of 200 μl, microplates were shaken briefly and further incubated to allow [^35S]GTPγS incorporation on activation (30 minutes, 30° C.). The reaction was stopped by rapid vacuum filtration over glass-fibre filter plates (Unifilter 96-well GF/B filter plates, Perkin-Elmer, Downers Grove, USA) microplate using a 96-well plate cell harvester (Filtermate, Perkin-Elmer, USA), and then by washing three times with 300 μl of ice-cold wash buffer (Na2PO4.2H20 10 mM, NaH2PO4.H20 10 mM, pH=7.4). Filters were then air-dried, and 40 μl of liquid scintillation cocktail (Microscint-O) was added to each well, and membrane-bound [^35S]GTPγS was measured in a 96-well scintillation plate reader (Top-Count, Perkin-Elmer, USA). […]

[2] = membranes from CHO cells transfected with human mGluR2, in presence of glutamate at predetermined EC25 concentration, averages of duplicate values of 11-concentration response curves, read-out: GTPgS - hR2 PAM pEC50 (converted)
[3] = compounds of formula (I'), protocol of section D ([35S]GTPγS, human mGluR2, glutamate EC25), read-out: pEC50 (see section D for protocol) (converted)

T1 sequence (Q14416 19-872): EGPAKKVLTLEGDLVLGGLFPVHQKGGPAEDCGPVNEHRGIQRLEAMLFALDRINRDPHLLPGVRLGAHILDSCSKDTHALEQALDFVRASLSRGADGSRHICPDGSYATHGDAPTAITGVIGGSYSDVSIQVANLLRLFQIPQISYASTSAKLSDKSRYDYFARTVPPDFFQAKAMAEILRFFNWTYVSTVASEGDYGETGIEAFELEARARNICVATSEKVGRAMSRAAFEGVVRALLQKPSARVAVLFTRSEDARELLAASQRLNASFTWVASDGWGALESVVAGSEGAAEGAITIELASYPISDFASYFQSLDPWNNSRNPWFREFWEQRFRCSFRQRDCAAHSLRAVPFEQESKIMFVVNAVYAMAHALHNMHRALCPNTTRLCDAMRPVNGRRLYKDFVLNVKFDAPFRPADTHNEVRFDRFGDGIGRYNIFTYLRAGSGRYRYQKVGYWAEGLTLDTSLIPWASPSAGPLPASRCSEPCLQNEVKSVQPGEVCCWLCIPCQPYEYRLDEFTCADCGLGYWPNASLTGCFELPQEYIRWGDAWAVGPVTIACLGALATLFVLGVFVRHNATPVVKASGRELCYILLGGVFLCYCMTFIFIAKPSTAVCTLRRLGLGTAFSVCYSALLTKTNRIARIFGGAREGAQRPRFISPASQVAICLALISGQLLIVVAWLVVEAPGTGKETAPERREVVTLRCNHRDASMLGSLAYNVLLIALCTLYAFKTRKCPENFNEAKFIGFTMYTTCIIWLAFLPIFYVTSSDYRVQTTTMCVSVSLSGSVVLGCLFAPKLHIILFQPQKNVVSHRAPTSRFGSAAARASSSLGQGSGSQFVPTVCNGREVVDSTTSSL

Row | SMILES | EC50 [1, 2] [nM] | EC50 [1, 3] [nM] | melting point [°C]
1 | CCCCn1ccc(N2CCC(F)(c3ccccc3)CC2)c(C#N)c1=O [Compound 2, 1′-Butyl-4-fluoro-2′-oxo-4-phenyl-3,4,5,6,1′,2′-hexahydro-2H-[1,4′]bipyridinyl-3′-carbonitrile] | 174 | – | –
2 | CCCCn1ccc(N2CCC(O)(c3ccc(Cl)cc3)CC2)c(C#N)c1=O | – | 100 | –
3 | N#Cc1c(N2CCC(c3ccccc3)CC2)ccn(CC2CC2)c1=O [Compound 8, 3-cyano-1-cyclopropylmethyl-4-(4-phenyl-piperidin-1-yl)-pyridine-2(1H)-one] | 316 | – | 128
4 | N#Cc1c(N2CCC(O)(c3ccccc3)CC2)ccn(CC2CC2)c1=O | – | 1000 | –
5 | N#Cc1c(N2CCC(O)(c3ccc(F)cc3)CC2)ccn(CC2CC2)c1=O | – | 501 | –
6 | N#Cc1c(N2CCC(CF)(c3ccccc3)CC2)ccn(CC2CC2)c1=O [Compound 5, 1′-Cyclopropylmethyl-4-fluoromethyl-2′-oxo-4-phenyl-3,4,5,6,1′,2′-hexahydro-2H-[1,4′]bipyridinyl-3′-carbonitrile] | 1200 | – | –
7 | CCCCn1ccc(N2CCC(O)(c3cccc(Cl)c3)CC2)c(C#N)c1=O | – | 200 | –
8 | CCCCn1ccc(N2CCC(CF)(c3ccccc3)CC2)c(C#N)c1=O [Compound 6, 1′-Butyl-4-fluoromethyl-2′-oxo-4-phenyl-3,4,5,6,1′,2′-hexahydro-2H-[1,4′]bipyridinyl-3′-carbonitrile] | 447 | – | –
9 | N#Cc1c(N2CCC(F)(c3ccccc3)CC2)ccn(CC2CC2)c1=O [Compound 1, 1′-Cyclopropylmethyl-4-fluoro-2′-oxo-4-phenyl-3,4,5,6,1′,2′-hexahydro-2H-[1,4′]bipyridinyl-3′-carbonitrile] | 263 | – | 189.2
10 | CCCCn1ccc(N2CCC(O)(c3ccc(F)cc3)CC2)c(C#N)c1=O | – | 398 | –
11 | CCCCn1ccc(N2CCC(OCCF)(c3ccccc3)CC2)c(C#N)c1=O [Compound 7, 1′-Butyl-4-fluoroethyloxy-2′-oxo-4-phenyl-3,4,5,6,1′,2′-hexahydro-2H-[1,4′]bipyridinyl-3′-carbonitrile] | 186 | – | –
12 | CCCCn1ccc(N2CCC(CO)(c3ccccc3)CC2)c(C#N)c1=O [Compound 4, 1′-Butyl-4-hydroxymethyl-2′-oxo-4-phenyl-3,4,5,6,1′,2′-hexahydro-2H-[1,4′]bipyridinyl-3′-carbonitrile] | 2040 | – | 103.2
